“And” between values parts separate entries of the source, which are not always exact repeats. Equal entries are not always repeated.
Conditions: Liquid, Vibrating wire viscometry

CC(F)(F)F [1,1,1-trifluoroethane]
Conditions | viscosity
254.35 K, 1340 kPa | 0.2054 mPa·s
254.35 K, 1350 kPa | 0.2063 mPa·s and 0.2059 mPa·s and 0.2062 mPa·s
254.35 K, 1360 kPa | 0.2057 mPa·s and 0.2065 mPa·s
254.35 K, 1410 kPa | 0.206 mPa·s
254.35 K, 1450 kPa | 0.2063 mPa·s
254.35 K, 1960 kPa | 0.208 mPa·s and 0.2082 mPa·s
254.35 K, 1970 kPa | 0.2078 mPa·s
254.35 K, 2010 kPa | 0.2081 mPa·s and 0.208 mPa·s
254.35 K, 2040 kPa | 0.2083 mPa·s
254.35 K, 2070 kPa | 0.2088 mPa·s
254.35 K, 3110 kPa | 0.2114 mPa·s
254.35 K, 3160 kPa | 0.2116 mPa·s
254.35 K, 3170 kPa | 0.2115 mPa·s
254.35 K, 3210 kPa | 0.2122 mPa·s
254.35 K, 3280 kPa | 0.212 mPa·s
254.35 K, 3320 kPa | 0.2119 mPa·s
254.35 K, 4170 kPa | 0.2145 mPa·s
254.35 K, 4190 kPa | 0.2147 mPa·s
254.35 K, 4210 kPa | 0.2147 mPa·s
254.35 K, 4940 kPa | 0.2173 mPa·s
254.35 K, 4970 kPa | 0.2167 mPa·s
254.35 K, 5000 kPa | 0.2176 mPa·s
254.35 K, 5020 kPa | 0.2172 mPa·s
254.35 K, 5050 kPa | 0.2171 mPa·s
254.35 K, 5100 kPa | 0.2176 mPa·s
263.02 K, 1300 kPa | 0.1828 mPa·s
263.02 K, 1320 kPa | 0.1828 mPa·s and 0.1829 mPa·s
263.02 K, 1330 kPa | 0.1827 mPa·s and 0.1826 mPa·s
263.02 K, 1970 kPa | 0.1855 mPa·s
263.02 K, 1980 kPa | 0.1857 mPa·s
263.02 K, 1990 kPa | 0.1855 mPa·s
263.02 K, 2010 kPa | 0.1851 mPa·s
263.02 K, 2020 kPa | 0.1857 mPa·s and 0.1859 mPa·s
263.02 K, 3420 kPa | 0.1899 mPa·s
263.02 K, 3430 kPa | 0.1898 mPa·s
263.02 K, 3450 kPa | 0.1898 mPa·s
263.02 K, 3520 kPa | 0.1903 mPa·s
263.02 K, 3560 kPa | 0.1901 mPa·s
263.02 K, 3590 kPa | 0.1898 mPa·s
263.02 K, 3640 kPa | 0.1906 mPa·s
263.02 K, 3670 kPa | 0.1905 mPa·s and 0.1908 mPa·s
263.02 K, 4800 kPa | 0.1943 mPa·s
263.02 K, 4840 kPa | 0.194 mPa·s
263.02 K, 4870 kPa | 0.194 mPa·s
263.02 K, 4910 kPa | 0.1942 mPa·s
263.02 K, 4950 kPa | 0.1939 mPa·s
263.02 K, 6990 kPa | 0.2018 mPa·s
263.02 K, 7090 kPa | 0.201 mPa·s
263.02 K, 7160 kPa | 0.2015 mPa·s
263.02 K, 7200 kPa | 0.2011 mPa·s
263.02 K, 7230 kPa | 0.2016 mPa·s
263.02 K, 7310 kPa | 0.2013 mPa·s and 0.2019 mPa·s
263.02 K, 7380 kPa | 0.2024 mPa·s
263.02 K, 7390 kPa | 0.2015 mPa·s
263.02 K, 7420 kPa | 0.2011 mPa·s
263.02 K, 7460 kPa | 0.2024 mPa·s and 0.2022 mPa·s
263.02 K, 7520 kPa | 0.2017 mPa·s
273.21 K, 1420 kPa | 0.1617 mPa·s
273.21 K, 1430 kPa | 0.1619 mPa·s
273.21 K, 1440 kPa | 0.1619 mPa·s
273.21 K, 1450 kPa | 0.1619 mPa·s
273.21 K, 1810 kPa | 0.1629 mPa·s
273.21 K, 1820 kPa | 0.1627 mPa·s
273.21 K, 1860 kPa | 0.1629 mPa·s
273.21 K, 1890 kPa | 0.1626 mPa·s
273.21 K, 3450 kPa | 0.1681 mPa·s and 0.1679 mPa·s and 0.1682 mPa·s
273.21 K, 3460 kPa | 0.1677 mPa·s
273.21 K, 3490 kPa | 0.1682 mPa·s and 0.1678 mPa·s
273.21 K, 3500 kPa | 0.168 mPa·s
273.21 K, 4850 kPa | 0.1724 mPa·s
273.21 K, 4860 kPa | 0.1722 mPa·s
273.21 K, 4880 kPa | 0.1724 mPa·s and 0.1719 mPa·s
273.21 K, 4910 kPa | 0.1722 mPa·s
273.21 K, 4960 kPa | 0.1724 mPa·s
273.21 K, 5010 kPa | 0.172 mPa·s
273.21 K, 5030 kPa | 0.1723 mPa·s
273.21 K, 7780 kPa | 0.1804 mPa·s
273.21 K, 7800 kPa | 0.1805 mPa·s
273.21 K, 7810 kPa | 0.1806 mPa·s
273.21 K, 7900 kPa | 0.1803 mPa·s
273.21 K, 7960 kPa | 0.1805 mPa·s
273.21 K, 9530 kPa | 0.1854 mPa·s
273.21 K, 9540 kPa | 0.1852 mPa·s
273.21 K, 9580 kPa | 0.1856 mPa·s
273.21 K, 9610 kPa | 0.1851 mPa·s
273.21 K, 9770 kPa | 0.185 mPa·s
273.21 K, 9880 kPa | 0.1853 mPa·s
283.22 K, 1240 kPa | 0.1416 mPa·s
283.22 K, 1260 kPa | 0.1418 mPa·s
283.22 K, 1470 kPa | 0.1416 mPa·s
283.22 K, 1510 kPa | 0.1424 mPa·s
283.22 K, 1530 kPa | 0.1424 mPa·s
283.22 K, 1570 kPa | 0.1429 mPa·s
283.22 K, 1900 kPa | 0.1433 mPa·s
283.22 K, 1930 kPa | 0.1433 mPa·s
283.22 K, 1950 kPa | 0.1432 mPa·s
283.22 K, 1970 kPa | 0.144 mPa·s
283.22 K, 2000 kPa | 0.1435 mPa·s
283.22 K, 2050 kPa | 0.1442 mPa·s
283.22 K, 3700 kPa | 0.1495 mPa·s
283.22 K, 3720 kPa | 0.1496 mPa·s
283.22 K, 3850 kPa | 0.1497 mPa·s
283.22 K, 5130 kPa | 0.1537 mPa·s
283.22 K, 5220 kPa | 0.1543 mPa·s
283.22 K, 5260 kPa | 0.1536 mPa·s and 0.154 mPa·s
283.22 K, 7400 kPa | 0.1615 mPa·s
283.22 K, 7500 kPa | 0.161 mPa·s
283.22 K, 7540 kPa | 0.1607 mPa·s
283.22 K, 9720 kPa | 0.1679 mPa·s
283.22 K, 9780 kPa | 0.1678 mPa·s
283.22 K, 9940 kPa | 0.168 mPa·s
283.22 K, 10050 kPa | 0.1678 mPa·s
293.17 K, 1370 kPa | 0.1253 mPa·s
293.17 K, 1390 kPa | 0.1255 mPa·s
293.17 K, 1400 kPa | 0.1252 mPa·s
293.17 K, 1420 kPa | 0.1256 mPa·s
293.17 K, 1430 kPa | 0.1258 mPa·s and 0.1256 mPa·s
293.17 K, 1440 kPa | 0.1258 mPa·s
293.17 K, 1850 kPa | 0.1268 mPa·s
293.17 K, 1860 kPa | 0.1266 mPa·s
293.17 K, 1890 kPa | 0.1271 mPa·s
293.17 K, 1920 kPa | 0.1267 mPa·s
293.17 K, 1940 kPa | 0.127 mPa·s
293.17 K, 3820 kPa | 0.1333 mPa·s
293.17 K, 3830 kPa | 0.1336 mPa·s
293.17 K, 3850 kPa | 0.1337 mPa·s
293.17 K, 3860 kPa | 0.1335 mPa·s
293.17 K, 3870 kPa | 0.1333 mPa·s
293.17 K, 3890 kPa | 0.1335 mPa·s and 0.1336 mPa·s
293.17 K, 4900 kPa | 0.1378 mPa·s
293.17 K, 4920 kPa | 0.1377 mPa·s
293.17 K, 4960 kPa | 0.138 mPa·s
293.17 K, 4970 kPa | 0.138 mPa·s
293.17 K, 5010 kPa | 0.1381 mPa·s
293.17 K, 7450 kPa | 0.1448 mPa·s
293.17 K, 7490 kPa | 0.1446 mPa·s
293.17 K, 7520 kPa | 0.145 mPa·s
293.17 K, 7550 kPa | 0.1449 mPa·s
293.17 K, 7560 kPa | 0.1449 mPa·s
293.17 K, 7590 kPa | 0.1451 mPa·s
293.17 K, 7620 kPa | 0.1453 mPa·s
293.17 K, 9740 kPa | 0.1507 mPa·s
293.17 K, 9770 kPa | 0.1506 mPa·s
293.17 K, 9820 kPa | 0.1507 mPa·s
293.17 K, 9880 kPa | 0.151 mPa·s
293.17 K, 9970 kPa | 0.1511 mPa·s
293.17 K, 10070 kPa | 0.1517 mPa·s

Reference: the NIST ThermoML archive (doi:10.1021/je0601356)
